From US11766430B2, “Methods of using a phenoxypropylamine compound to treat pain” (Minerva Neurosciences, Inc., priority 2018, dated 2023)
Entries after “also recorded” stand apart in the source; their conditions may differ.

Legend:
[1] = tested on: paclitaxel-induced peripheral neuropathic pain in rats; assay: Reversal of paclitaxel-induced peripheral neuropathic pain, paw withdrawal threshold, chronic administration (Example 6); format: in vivo, Male Sprague Dawley rats; conditions: for PWT compared to vehicle (in words): days 14, 21 and 28; for PWT after cessation of treatment (in words): 100 mg/kg orally, day 35, one week after cessation of treatment
Experimental: (§1) Male Sprague Dawley rats from Envigo were used in the study. Animals were received at approximately 250 g and housed 3 per cage upon arrival. All rats were examined, handled, and weighed prior to initiation of the study to assure adequate health and suitability. During the course of the study, 12/12 light/dark cycles was maintained. The room temperature was be maintained between 20 and 23° C. with a relative humidity maintained around 50%. Chow and water was provided ad libitum for the duration of the study. All testing was performed during the animal's light cycle phase.
(§2) Paclitaxel (2 mg/kg) was purchased from Biolyse Pharma and injected i.p. on four alternate days (day 1, 3, 5 and 7) for a total of 4 injections at a dose volume of 1 mL/kg.
(§3) Gabapentin (100 mg/kg) was dissolved in saline and administered orally at a dose volume of 1 mL/kg. For prevention study, gabapentin was administered on day 14, sixty minutes prior to test. For reversal study, gabapentin was administered once daily for 2 weeks. On test days it was administered 60 minutes prior to test.
Reversal study: MIN-117 (1, 3 and 10 mg/kg) was formulated in 0.5% (w/v) hydroxypropylmethyl cellulose (HPMC) 8°-120 centipoises in water and administered i.p once daily for 2 weeks at a dose volume of 1 mL/kg. On test days, MIN-117 was administered 2 hours prior to test.
(§4) Rats were administered paclitaxel (2 mg/kg) on four alternate days (days 1, 3, 5 and 7). Baseline and post treatment Paw Withdrawal Threshold (PWT) were evaluated using von Frey filaments (Semmes-Weinstein filaments, Stoelting, Wood Dale, Ill., USA) of varying stiffness (0.4, 0.7, 1.2, 2.0, 3.6, 5.5, 8.5, 10, 15, 26 g). Animals were placed on a perforated metallic platform and allowed to acclimate to their surroundings for a minimum of 15 minutes before each test session. Each filament was presented perpendicular to the plantar surface with sufficient force to cause slight buckling against the paw, and then held until a positive response is noted (paw sharply withdrawn). As described by Chaplan et al. 1994, once the threshold was crossed, the 2 responses straddling the threshold are retrospectively designated as the first 2 responses. Four additional responses were measured to stimuli varied sequentially up or down based on the animal's response. The 6 responses in the immediate vicinity of the threshold were used to calculate the 50% g threshold: 50% g threshold=(10^[Xf+k*d])/10000 Xf is the final filament used (in log units). The parameter k is from the Appendix 1 in Chaplan and was determined by the pattern of the von Frey responses (e.g. OXOXOX where ‘O’ indicates no response and ‘X’ denotes a withdrawal). The parameter d is the difference between stimuli which Chaplan used a constant d=0.224. To accommodate for the use of the 10 g and 26 g filaments, the exact difference between stimuli were used.
(§5) PWT was measured according to the Schematics in FIG. 9 (prevention) and FIG. 10 (reversal study).
Data was analyzed by analysis of variance (ANOVA) followed by post-hoc comparisons where appropriate. An effect will be considered significant if p<0.05. Data was represented as the mean and standard error to the mean (s.e.m). Statistical outliers that fell above or below 2 standard deviations of the mean were identified but not removed from the final analysis.

[2] = tested on: paclitaxel-induced neuropathy in rats; assay: Other antidepressants in paclitaxel-induced neuropathy, paw withdrawal threshold (Example 7); format: in vivo; conditions: 60 min. following administration
Experimental: Two classes of antidepressants were also evaluated in Paw Withdrawal Threshold (PWT) experiments: duloxetine, a serotonin norepinephrine reuptake inhibitor, and amitriptyline, a tricyclic antidepressant.
(§6) On day 22, post-paclitaxel administration (left-most columns in FIG. 16 correspond to rats not administered paclitaxel), rats were administered vehicle (second columns from left in FIG. 16) or duloxetine (orally) and PWT was assessed 60 min. following injection. Data represents mean±s.e.m. (* p<0.05 vs. vehicle/vehicle).
as §6, with “27,” for “22,”, “17” for “16”, “17)” for “16)”, “amitriptyline” for “duloxetine”, “vehicle/vehicle, #p<0.05 vs. paclitaxel/vehicle).” for “vehicle/vehicle).”

[3] = tested on: paclitaxel-induced peripheral neuropathic pain in rats; assay: Prevention of paclitaxel-induced peripheral neuropathic pain, paw withdrawal threshold, chronic administration (Example 6); format: in vivo, Male Sprague Dawley rats; conditions: 100 mg/kg orally on day 14, sixty minutes prior to test (acute)
Experimental: as §1, §2, §3
Prevention study: MIN-117 (10 mg/kg) was formulated in 0.5% (w/v) hydroxypropylmethyl cellulose (HPMC) 8°-120 centipoises in water and was administered i.p once daily for 7 or 14 days at a dose volume of 1 mL/kg. On test days, MIN-117 was administered 2 hours prior to test.
as §4, with “The 6 responses in the immediate vicinity of the threshold were used to calculate the 50% g threshold: 50% g threshold=(10^[Xf+k*d])/10000 Xf is the final filament used (in log units).” left out, “The parameter d is the difference between stimuli which Chaplan used a constant d=0.224. To accommodate for the use of the 10 g and 26 g filaments, the exact difference between stimuli were used.” left out
as §5
Data was analyzed by analysis of variance (ANOVA) followed by post-hoc comparisons where appropriate. […]

[4] = Body weight during the chemotherapy induced neuropathic pain study (Example 5); format: in vivo, Male Sprague Dawley rats; conditions: paclitaxel days 1, 3, 5, 7; test compound on day 14; repeated measures ANOVA
Experimental: as §1, with “(from Envigo, Ind., USA)” for “from Envigo”, “12 h/12 h” for “12/12”, “phase. Every effort was made to minimize suffering of animals. Rats with baseline PWT less than 12 g were not included in the study. Rats were balanced by body weight and by their pre-paclitaxel PWT values. ANOVA found no significant differences between the treatment groups.” for “phase.”

[5] = tested on: chemotherapy-induced peripheral neuropathic pain in rats; assay: Paclitaxel-induced peripheral neuropathic pain, paw withdrawal threshold with von Frey filaments, single administration (Example 5); format: in vivo, Male Sprague Dawley rats
Experimental: Assessment of neuropathic pain using von Frey filaments was performed. Rats were administered paclitaxel (2 mg/kg) on four alternate days (days 1, 3, 5 and 7). Baseline and post treatment paw withdrawal thresholds (PWT) were evaluated using von Frey filaments (Semmes-Weinstein filaments, Stoelting, Wood Dale, Ill., USA) of varying stiffness (0.4, 0.7, 1.2, 2.0, 3.6, 5.5, 8.5, 10, 15, 26 g). Animals were placed on a perforated metallic platform and allowed to acclimate to their surroundings for a minimum of 15 minutes before each test session. Each filament was presented perpendicular to the plantar surface with sufficient force to cause slight buckling against the paw, and then held until a positive response is noted (paw sharply withdrawn). As described by Chaplan, S. R. et al. “Qualitative Assessment of Tactile Allodynia in the Rat Paw” Journal of Neuroscience Methods, 53 (1994), 55-63 (“Chaplan”), once the threshold was crossed, the 2 responses straddling the threshold are retrospectively designated as the first 2 responses. Four additional responses were measured to stimuli varied sequentially up or down based on the animal's response. The 6 responses in the immediate vicinity of the threshold were used to calculate the 50% g threshold: 50% g threshold=(10^[Xf+k*d])/10000
Xf is the final filament used (in log units). The parameter k is from the Appendix 1 in Chaplan and was determined by the pattern of the von Frey responses (e.g. OXOXOX where ‘O’ indicates no response and ‘X’ denotes a withdrawal). The parameter d is the difference between stimuli which Chaplan used a constant d=0.224. To accommodate for the use of the 10 g and 26 g filaments, the exact difference between stimuli were used.
as §1, with “(from Envigo, Ind., USA)” for “from Envigo”, “12 h/12 h” for “12/12”, “phase. Every effort was made to minimize suffering of animals. Rats with baseline PWT less than 12 g were not included in the study. Rats were balanced by body weight and by their pre-paclitaxel PWT values. ANOVA found no significant differences between the treatment groups.” for “phase.”
Paclitaxel was purchased from Biolyse Pharma (Ontario, Canada) and was injected i.p. (2 mg/kg) on four alternate days (day 1, 3, 5 and 7) for a total of 4 injections at a dose volume of 1 mL/kg.
Rats were subsequently balanced and assigned to treatment groups based on post-paclitaxel PWT values. On test day, PWT was assessed two hours post vehicle or MIN-117 injections and one hour after gabapentin administration.
Gabapentin was purchased from Toronto Research Chemicals and was dissolved in saline and administered orally 60 minutes prior to test at a dose volume of 1 mL/kg. MIN-117 (1, 3 and 10 mg/kg), formulated in 0.5% (w/v) hydroxypropylmethylcellulose (HPMC, Sigma-Aldrich), was administered i.p. at a dose volume of 1 mL/kg. MIN-117 was administered 2 hours prior to test.

Cc1nnc(-c2cc3c(OC[C@@H](O)CN4CCC(c5ccc(Cl)c(Cl)c5)CC4)cccc3o2)o1 [Compound I, (2S)-1-(4-(3,4-dichlorophenyl)piperidin-1-yl)-3-((2-(5-methyl-1,3,4-oxadiazol-2-yl)benzofuran-4-yl)oxy)propan-2-ol]
PWT compared to vehicle (in words) ([1]; 1 mg/kg i.p. once daily for 2 weeks, 2 hours post dosing): significant increases in pain with threshold | PWT compared to vehicle (in words) ([1]; 3 mg/kg i.p. once daily for 2 weeks, 2 hours post dosing): significant increases in pain with threshold | PWT compared to vehicle (in words) ([1]; 10 mg/kg i.p. once daily for 2 weeks, 2 hours post dosing): significant increases in pain with threshold

CN(C)CCC=C1c2ccccc2CCc2ccccc21 [amitriptyline]
Effect on PWT in paclitaxel-treated rats (in words) ([2]; 3 mg/kg orally, day 27 post-paclitaxel): not found to reverse paclitaxel-induced neuropathy | Effect on PWT in paclitaxel-treated rats (in words) ([2]; 10 mg/kg orally, day 27 post-paclitaxel): not found to reverse paclitaxel-induced neuropathy | Effect on PWT in paclitaxel-treated rats (in words) ([2]; 30 mg/kg orally (highest dose tested), day 27 post-paclitaxel): only partially reversed

CNCC[C@H](Oc1cccc2ccccc12)c1cccs1 [duloxetine]
Effect on PWT in paclitaxel-treated rats (in words) ([2]; 3 mg/kg orally, day 22 post-paclitaxel): no effect on PWT | Effect on PWT in paclitaxel-treated rats (in words) ([2]; 10 mg/kg orally, day 22 post-paclitaxel): no effect on PWT | Effect on PWT in paclitaxel-treated rats (in words) ([2]; 30 mg/kg orally, day 22 post-paclitaxel): no effect on PWT

NCC1(CC(=O)O)CCCCC1 [Gabapentin, reference compound]
PWT compared to vehicle (in words) ([1]; 100 mg/kg orally once daily for 2 weeks (chronic), 1 hour post dosing): significant increase in PWT; also recorded: significantly higher PWT | PWT after cessation of treatment (in words) [1]: returned to vehicle levels | PWT after cessation of treatment (in words) ([1]; listed as gabapentin): no significant effect on PWT | PWT compared to vehicle (in words) [3]: significant increase in PWT; also recorded: significantly higher PWT | Body weight during the study, between groups (in words) [4]: no significant difference between groups | Paw withdrawal threshold (PWT) compared to vehicle (in words) ([5]; Day 14 after first paclitaxel, administered orally 60 minutes prior to test): significant increase in PWT | Paw withdrawal threshold (PWT), Day 14 Avg., Mean ([5]; Paclitaxel + Gabapentin (100 mg/kg), oral, 60 minutes prior to test, Count 12): 19.633 g | Mean Diff. of Day 14 Avg. PWT, Fisher's PLSD ([5]; Paclitaxel + Vehicle, Paclitaxel + Gabapentin (100 mg/kg)): −15.759
